{"source": "patent US5294611A", "about": "“Angiotensin II receptor blocking 2,3,6 substituted quinazolinones” (American Cyanamid Company, priority 1993, dated 1994)", "tested_on": "Angiotensin II (AII) vasopressor response", "test": "AII Challenge: antagonism of angiotensin II vasopressor response in conscious spontaneously hypertensive rats", "type": "in vivo, rat (male okamoto-Aoki SHR)", "settings": "for inhibition in vivo at 3 mg/kg / inhibition in vivo at 5 mg/kg: Rattus norvegicus, read-out: Inhibition; for inhibition in vivo at 3 mg/kg: iv; for inhibition in vivo at 3 mg/kg / inhibition in vivo at 5 mg/kg / Average Change: SHR n=2; for inhibition in vivo at 5 mg/kg: po; for Change: single SHR", "outline": "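Read-out is the systolic pressure increase (mmHg) to i.v. angiotensin II, 0.05 and 0.1 ug/kg, compared pre- and post-dose in restrained, conscious spontaneously hypertensive male rats. Compounds administered orally, i.p. or i.v.; arterial cannula inserted under local anaesthesia.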", "key": {"[1]": {"settings": "3 mg/kg I.V., AII 0.05 mcg/kg IV, 240 min post dose"}, "[2]": {"settings": "3 mg/kg I.V., AII 0.1 mcg/kg IV, 300 min post dose"}, "[3]": {"settings": "5 mg/kg P.O., AII 0.1 mcg/kg IV, 300 min post dose"}}, "note": "Where two headings read alike, the source gives them in different places."}
{"smiles": "CCCCc1nc2ccc([C@H]3[C@@H]4C(=O)OC[C@@H]4ON3C)cc2c(=O)n1Cc1ccc(-c2ccccc2-c2nnn[nH]2)cc1", "note": "(relative stereo) [Example 53]", "values": [{"measurement": "inhibition in vivo at 3 mg/kg", "setting": "0.5 h, 3 mg/kg I.V., AII 0.05 mcg/kg IV, 30 min post dose", "value": 74, "unit": "%"}, {"measurement": "inhibition in vivo at 3 mg/kg", "setting": "0.5 h, 3 mg/kg I.V., AII 0.1 mcg/kg IV, 30 min post dose", "value": 81, "unit": "%"}, {"measurement": "inhibition in vivo at 3 mg/kg", "setting": "1 h, 3 mg/kg I.V., AII 0.05 mcg/kg IV, 60 min post dose", "value": 99, "unit": "%"}, {"measurement": "inhibition in vivo at 3 mg/kg", "setting": "1 h, 3 mg/kg I.V., AII 0.1 mcg/kg IV, 60 min post dose", "value": 95, "unit": "%"}, {"measurement": "inhibition in vivo at 3 mg/kg", "setting": "2 h, 3 mg/kg I.V., AII 0.05 mcg/kg IV, 120 min post dose", "value": 42, "unit": "%"}, {"measurement": "inhibition in vivo at 3 mg/kg", "setting": "2 h, 3 mg/kg I.V., AII 0.1 mcg/kg IV, 120 min post dose", "value": 64, "unit": "%"}, {"measurement": "inhibition in vivo at 3 mg/kg", "setting": "3 h, 3 mg/kg I.V., AII 0.05 mcg/kg IV, 180 min post dose", "value": 77, "unit": "%"}, {"measurement": "inhibition in vivo at 3 mg/kg", "setting": "3 h, 3 mg/kg I.V., AII 0.1 mcg/kg IV, 180 min post dose", "value": 64, "unit": "%"}, {"measurement": "inhibition in vivo at 3 mg/kg", "setting": "4 h, 3 mg/kg I.V., AII 0.05 mcg/kg IV, 240 min post dose", "value": 36, "unit": "%"}, {"measurement": "inhibition in vivo at 3 mg/kg", "setting": "4 h, 3 mg/kg I.V., AII 0.1 mcg/kg IV, 240 min post dose", "value": 44, "unit": "%"}, {"measurement": "inhibition in vivo at 3 mg/kg", "setting": "5 h, 3 mg/kg I.V., AII 0.05 mcg/kg IV, 300 min post dose", "value": 49, "unit": "%"}, {"measurement": "inhibition in vivo at 3 mg/kg", "setting": "5 h, 3 mg/kg I.V., AII 0.1 mcg/kg IV, 300 min post dose", "value": 39, "unit": "%"}, {"measurement": "inhibition in vivo at 3 mg/kg", "setting": "[…], 3 mg/kg I.V., AII 0.05 mcg/kg IV, 90 min post dose", "value": 68, "unit": "%"}, {"measurement": "inhibition in vivo at 3 mg/kg", "setting": "[…], 3 mg/kg I.V., AII 0.1 mcg/kg IV, 90 min post dose", "value": 66, "unit": "%"}, {"measurement": "inhibition in vivo at 5 mg/kg", "setting": "0.5 h, 5 mg/kg P.O., AII 0.05 mcg/kg IV, 30 min post dose", "value": 75, "unit": "%"}, {"measurement": "inhibition in vivo at 5 mg/kg", "setting": "0.5 h, 5 mg/kg P.O., AII 0.1 mcg/kg IV, 30 min post dose", "value": 59, "unit": "%"}, {"measurement": "inhibition in vivo at 5 mg/kg", "setting": "1 h, 5 mg/kg P.O., AII 0.05 mcg/kg IV, 60 min post dose", "value": 81, "unit": "%"}, {"measurement": "inhibition in vivo at 5 mg/kg", "setting": "1 h, 5 mg/kg P.O., AII 0.1 mcg/kg IV, 60 min post dose", "value": 53, "unit": "%"}, {"measurement": "inhibition in vivo at 5 mg/kg", "setting": "2 h, 5 mg/kg P.O., AII 0.05 mcg/kg IV, 120 min post dose", "value": 98, "unit": "%"}, {"measurement": "inhibition in vivo at 5 mg/kg", "setting": "2 h, 5 mg/kg P.O., AII 0.1 mcg/kg IV, 120 min post dose", "value": 74, "unit": "%"}, {"measurement": "inhibition in vivo at 5 mg/kg", "setting": "3 h, 5 mg/kg P.O., AII 0.05 mcg/kg IV, 180 min post dose", "value": 96, "unit": "%"}, {"measurement": "inhibition in vivo at 5 mg/kg", "setting": "3 h, 5 mg/kg P.O., AII 0.1 mcg/kg IV, 180 min post dose", "value": 79, "unit": "%"}, {"measurement": "inhibition in vivo at 5 mg/kg", "setting": "4 h, 5 mg/kg P.O., AII 0.05 mcg/kg IV, 240 min post dose", "value": 69, "unit": "%"}, {"measurement": "inhibition in vivo at 5 mg/kg", "setting": "4 h, 5 mg/kg P.O., AII 0.1 mcg/kg IV, 240 min post dose", "value": 71, "unit": "%"}, {"measurement": "inhibition in vivo at 5 mg/kg", "setting": "5 h, 5 mg/kg P.O., AII 0.05 mcg/kg IV, 300 min post dose", "value": 84, "unit": "%"}, {"measurement": "inhibition in vivo at 5 mg/kg", "setting": "5 h, 5 mg/kg P.O., AII 0.1 mcg/kg IV, 300 min post dose", "value": 53, "unit": "%"}, {"measurement": "inhibition in vivo at 5 mg/kg", "setting": "[…], 5 mg/kg P.O., AII 0.05 mcg/kg IV, 90 min post dose", "value": 88, "unit": "%"}, {"measurement": "inhibition in vivo at 5 mg/kg", "setting": "[…], 5 mg/kg P.O., AII 0.1 mcg/kg IV, 90 min post dose", "value": 76, "unit": "%"}, {"measurement": "Average Change", "setting": "3 mg/kg I.V., AII 0.05 mcg/kg IV, 30 min post dose", "value": 10, "unit": "mmHg"}, {"measurement": "Average Change", "setting": "3 mg/kg I.V., AII 0.05 mcg/kg IV, 60 min post dose", "value": 0.5, "unit": "mmHg"}, {"measurement": "Average Change", "setting": "3 mg/kg I.V., AII 0.05 mcg/kg IV, 90 min post dose", "value": 12.5, "unit": "mmHg"}, {"measurement": "Average Change", "setting": "3 mg/kg I.V., AII 0.05 mcg/kg IV, 120 min post dose", "value": 22.5, "unit": "mmHg"}, {"measurement": "Average Change", "setting": "3 mg/kg I.V., AII 0.05 mcg/kg IV, 180 min post dose", "value": 9, "unit": "mmHg"}, {"measurement": "Average Change", "setting": "[1]", "value": 25, "unit": "mmHg"}, {"measurement": "Average Change", "setting": "3 mg/kg I.V., AII 0.1 mcg/kg IV, 30 min post dose", "value": 9.5, "unit": "mmHg"}, {"measurement": "Average Change", "setting": "3 mg/kg I.V., AII 0.1 mcg/kg IV, 60 min post dose", "value": 2.5, "unit": "mmHg"}, {"measurement": "Average Change", "setting": "3 mg/kg I.V., AII 0.1 mcg/kg IV, 90 min post dose", "value": 16.5, "unit": "mmHg"}, {"measurement": "Average Change", "setting": "3 mg/kg I.V., AII 0.1 mcg/kg IV, 120 min post dose", "value": 17.5, "unit": "mmHg"}, {"measurement": "Average Change", "setting": "3 mg/kg I.V., AII 0.1 mcg/kg IV, 180 min post dose", "value": 17.5, "unit": "mmHg"}, {"measurement": "Average Change", "setting": "3 mg/kg I.V., AII 0.1 mcg/kg IV, 240 min post dose", "value": 27.5, "unit": "mmHg"}, {"measurement": "Average Change", "setting": "[2]", "value": 30, "unit": "mmHg"}, {"measurement": "Average Change", "setting": "5 mg/kg P.O., AII 0.05 mcg/kg IV, 30 min post dose", "value": 10, "unit": "mmHg"}, {"measurement": "Average Change", "setting": "5 mg/kg P.O., AII 0.05 mcg/kg IV, 60 min post dose", "value": 7.5, "unit": "mmHg"}, {"measurement": "Average Change", "setting": "5 mg/kg P.O., AII 0.05 mcg/kg IV, 90 min post dose", "value": 5, "unit": "mmHg"}, {"measurement": "Average Change", "setting": "5 mg/kg P.O., AII 0.05 mcg/kg IV, 120 min post dose", "value": 1, "unit": "mmHg"}, {"measurement": "Average Change", "setting": "5 mg/kg P.O., AII 0.05 mcg/kg IV, 180 min post dose", "value": 1.5, "unit": "mmHg"}, {"measurement": "Average Change", "setting": "5 mg/kg P.O., AII 0.05 mcg/kg IV, 240 min post dose", "value": 12.5, "unit": "mmHg"}, {"measurement": "Average Change", "setting": "5 mg/kg P.O., AII 0.05 mcg/kg IV, 300 min post dose", "value": 6.5, "unit": "mmHg"}, {"measurement": "Average Change", "setting": "5 mg/kg P.O., AII 0.1 mcg/kg IV, 30 min post dose", "value": 17.5, "unit": "mmHg"}, {"measurement": "Average Change", "setting": "5 mg/kg P.O., AII 0.1 mcg/kg IV, 60 min post dose", "value": 20, "unit": "mmHg"}, {"measurement": "Average Change", "setting": "5 mg/kg P.O., AII 0.1 mcg/kg IV, 90 min post dose", "value": 10, "unit": "mmHg"}, {"measurement": "Average Change", "setting": "5 mg/kg P.O., AII 0.1 mcg/kg IV, 120 min post dose", "value": 11, "unit": "mmHg"}, {"measurement": "Average Change", "setting": "5 mg/kg P.O., AII 0.1 mcg/kg IV, 180 min post dose", "value": 9, "unit": "mmHg"}, {"measurement": "Average Change", "setting": "5 mg/kg P.O., AII 0.1 mcg/kg IV, 240 min post dose", "value": 12.5, "unit": "mmHg"}, {"measurement": "Average Change", "setting": "[3]", "value": 20, "unit": "mmHg"}, {"measurement": "Change", "setting": "[1]", "value": 25, "unit": "mmHg"}, {"measurement": "Change", "setting": "3 mg/kg I.V., AII 0.05 mcg/kg IV, 300 min post dose", "value": 20, "unit": "mmHg"}, {"measurement": "Change", "setting": "[2]", "value": 30, "unit": "mmHg"}, {"measurement": "Change", "setting": "[3]", "value": 20, "unit": "mmHg"}]}
